Laboratory results taken from US4194006A, “Therapeutic application of acetyl-d,l-carnitine and other acyl derivatives of d,l-carnitine” (priority 1977, dated 1980).
Like-named read-outs stand apart in the source and are kept apart here.

Key:
[1] = system: isolated rat atrium; experiment: antiarrhythmic effect, isolated rat atrium method of M. Libonati and G. Segre; details: Rattus norvegicus
[2] = system: isolated rabbit hearts; experiment: coronary vasodilator effect: coronary flow, isolated heart (Langendorff)
Procedure, shortened: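 Langendorff-perfused isolated rabbit hearts in oxygenated Ringer at 38.2° C; anoxia imposed until contractile force fell by 80%, then reoxygenated with or without test compound. Coronary flow, isometric contraction and ECG recorded by polygraph.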

[3] = system: female rats; experiment: antifatigue effect: rota-rod; type: in vivo, rat; details: Rattus norvegicus, ip, 0.25 h; for responders at 200 mg/kg: read-out: percentage of animals staying on the rota-rod more than 180 seconds, 200 mg/kg i.p.; for responders at 300 mg/kg: read-out: percentage of animals staying on the rota-rod more than 180 seconds, 300 mg/kg i.p.; for responders at 400 mg/kg: read-out: percentage of animals staying on the rota-rod more than 180 seconds, 400 mg/kg i.p.; for responders at 600 mg/kg: read-out: percentage of animals staying on the rota-rod more than 180 seconds, 600 mg/kg i.p.
Procedure, shortened: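 Female rats dosed intraperitoneally in saline, with controls given saline alone. Every 15 min after treatment animals were placed on a 6 cm rod rotating at 16 r.p.m. Value is the percentage of animals staying on the rod for more than 180 s, per session.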

[4] = in vivo; details: mouse, in vivo, iv
Text: The tolerance of acetyl-d,l-carnitine and of the other aforementioned acyl derivatives of the formula (I), as well as their salts were investigated by comparing the LD50 obtained by administering the compounds intravenously in mice with the LD50 obtained under the same experimental conditions by intravenous injection of d,l-carnitine.

[5] = system: isolated rabbit hearts; experiment: cardiokinetic effect on isolated heart (Langendorff): contractile force after anoxia, positive inotropic effect; details: 10 minutes from interruption of anoxic period
Procedure, shortened: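 Rabbit hearts were perfused Langendorff-style with oxygenated Ringer at 38.2 °C. Anoxia was applied until contractile force dropped by 80%, then the hearts were reoxygenated with or without compound. Contractile force was expressed as a percentage 10 min after the anoxic period ended.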

[6] = system: heart homogenates; experiment: oxygen consumption (Q O2) in heart homogenates with and without added CoA; type: biochemical; details: compound 10^-3 M
[7] = read-out: Mean percent variation versus controls: excitability (-%)
[8] = read-out: Mean percent variation versus controls: frequency max (-%)
[9] = read-out: Mean percent variation versus controls: refractory period (+%)
[10] = read-out: Mean percent variation versus controls: rheobase (+%)
[11] = session 6 (every 15 minutes), * p < 0.05

Work on `C[N+](C)(C)CC(O)CC(=O)[O-]` (racemic) [d,l-carnitine, γ-trimethyl amino β-hydroxy butyric acid] yielded an inhibition at 0.001 µg/mL [1, 7] of 12.7%, an inhibition at 0.01 µg/mL [1, 7] of 19.3% and an inhibition at 0.1 µg/mL [1, 7] of 27.1%. For the same molecule, the inhibition at 0.001 µg/mL [1, 8] was 7.28%, the inhibition at 0.01 µg/mL [1, 8] was 23.6% and the inhibition at 0.1 µg/mL [1, 8] was 25.2%. For the same molecule, the activation at 0.001 µg/mL [1, 9] was 18.3%, the activation at 0.01 µg/mL [1, 9] was 26% and the activation at 0.1 µg/mL [1, 9] was 31.1%. The activation at 0.001 µg/mL [1, 10] was 5.81%, the activation at 0.01 µg/mL [1, 10] was 9.07% and the activation at 0.1 µg/mL [1, 10] was 20.3%. For the same molecule, the “Coronary flow, Mean ± S.E.” value ([2]; 1·10^-5 g/lt) was 85.18 ± 3.26%, the “Coronary flow, Mean ± S.E.” value ([2]; 1·10^-6 g/lt) was 74.02 ± 6.17% and the “Coronary flow, Mean ± S.E.” value ([2]; 5·10^-6 g/lt) was 77.85 ± 3.01%. The responders at 200 mg/kg ([3]; session 1 (every 15 minutes)) was 0%, the responders at 200 mg/kg ([3]; session 2 (every 15 minutes)) was 0% and the responders at 200 mg/kg ([3]; session 3 (every 15 minutes)) was 0%. It also gave a responders at 200 mg/kg ([3]; session 4 (every 15 minutes)) of 0%, a responders at 200 mg/kg ([3]; session 5 (every 15 minutes), * p < 0.05) of 0% and a responders at 200 mg/kg [3, 11] of 0%. For the same molecule, the responders at 300 mg/kg ([3]; session 1 (every 15 minutes)) was 0%, the responders at 300 mg/kg ([3]; session 2 (every 15 minutes)) was 0% and the responders at 300 mg/kg ([3]; session 3 (every 15 minutes)) was 0%. It also gave a responders at 300 mg/kg ([3]; session 4 (every 15 minutes)) of 0%, a responders at 300 mg/kg ([3]; session 5 (every 15 minutes)) of 10% and a responders at 300 mg/kg ([3]; session 6 (every 15 minutes)) of 10%. The responders at 400 mg/kg ([3]; session 1 (every 15 minutes)) was 0%, the responders at 400 mg/kg ([3]; session 2 (every 15 minutes)) was 0% and the responders at 400 mg/kg ([3]; session 3 (every 15 minutes)) was 8.33%. It also gave a responders at 400 mg/kg ([3]; session 4 (every 15 minutes)) of 25%, a responders at 400 mg/kg ([3]; session 5 (every 15 minutes)) of 25% and a responders at 400 mg/kg [3, 11] of 25%. The responders at 600 mg/kg ([3]; session 1 (every 15 minutes)) was 0%, the responders at 600 mg/kg ([3]; session 2 (every 15 minutes)) was 16.7% and the responders at 600 mg/kg ([3]; session 3 (every 15 minutes)) was 16.7%. For the same molecule, the responders at 600 mg/kg ([3]; session 4 (every 15 minutes)) was 16.7%, the responders at 600 mg/kg ([3]; session 5 (every 15 minutes)) was 16.7% and the responders at 600 mg/kg [3, 11] was 25%. For the same molecule, the LD50 [4] was roughly 610 mg/kg, the “Contractile force, Mean ± S.E.” value ([5]; 1·10^-5 g/lt) was 50.9 ± 3.01% and the “Contractile force, Mean ± S.E.” value ([5]; 1·10^-6 g/lt) was 28.4 ± 3.15%. For the same molecule, the “Contractile force, Mean ± S.E.” value ([5]; 5·10^-6 g/lt) was 32.2 ± 2.90%, the “Q O2” value ([6]; added CoA 0) was 7.0 μlO2 /mg protein/hr and the “Q O2” value ([6]; added CoA 2 × 10^-6 M) was 8.4 μlO2 /mg protein/hr. For the same molecule, the “Q O2” value ([6]; added CoA 4 × 10^-6 M) was 19.5 μlO2 /mg protein/hr and the “Q O2” value ([6]; added CoA 8 × 10^-7 M) was 8.1 μlO2 /mg protein/hr.
